Test results as given in patent US12723063B2, “GIPR-agonist compounds” (Eli Lilly and Company, priority 2019, dated 2026).
*1 amine or outer side, *2 acyl side, *3 side chain or, on linkers, in order; H or OH if unused. Where a SMILES comes first, the peptide text is derived from it. Side-chain parts run from the residue outwards. [ ]: non-standard residue; d: D form. The star is where a group is joined. C20 diacid = O=C(O)CCCCCCCCCCCCCCCCCCC(=O)*; γGlu = O=C(O)[C@H](CCC(=O)[*:2])N[*:1]; AEEA = NCCOCCOCC(=O)O

Assays:
human GcgR = target: T1, human GcgR (Homo sapiens, UniProt P47871); assay: [125I]-Glucagon binding, SPA with WGA beads, 0.1% bacitracin; conditions: geometric mean, read-out: hGcgR Ki
T1 construct: expressed in transfected cells; crude membranes
T1 sequence (P47871 26-477): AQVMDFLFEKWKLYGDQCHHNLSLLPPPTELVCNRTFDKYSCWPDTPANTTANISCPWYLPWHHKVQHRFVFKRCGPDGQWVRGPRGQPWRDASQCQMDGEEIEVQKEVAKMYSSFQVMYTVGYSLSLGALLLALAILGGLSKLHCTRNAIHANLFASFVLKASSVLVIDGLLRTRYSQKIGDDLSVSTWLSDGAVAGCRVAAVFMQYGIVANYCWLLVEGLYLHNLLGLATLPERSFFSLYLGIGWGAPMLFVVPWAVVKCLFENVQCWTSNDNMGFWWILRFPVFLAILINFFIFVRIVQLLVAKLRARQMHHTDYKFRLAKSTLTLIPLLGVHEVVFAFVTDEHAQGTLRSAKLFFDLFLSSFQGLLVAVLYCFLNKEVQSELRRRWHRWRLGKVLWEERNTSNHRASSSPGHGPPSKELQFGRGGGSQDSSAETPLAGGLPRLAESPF
Method: (§1) Stably transfected cell lines are prepared by subcloning receptor cDNA into a pcDNA3 expression plasmid and transfected into human embryonic kidney (HEK) 293 (hGcgR and hGLP-1R) or Chinese Hamster Ovary (CHO) (hGIPR) cells followed by selection with Geneticin (hGLP-1R and hGIPR) or hygromycin B (hGcgR).
(§2) Two methods are used for the preparation of crude cell membranes.
(§3) Method 1: Frozen cell pellets are lysed on ice in hypotonic buffer containing 50 mM Tris HCl, pH 7.5, and Roche Complete™ Protease Inhibitors with EDTA. The cell suspension is disrupted using a glass Potter-Elvehjem homogenizer fitted with a Teflon® pestle for 25 strokes. The homogenate is centrifuged at 4° C. at 1100× g for 10 minutes. The supernatant is collected and stored on ice while the pellets are resuspended in homogenization buffer and rehomogenized as described above. The homogenate is centrifuged at 1100× g for 10 minutes. The second supernatant is combined with the first supernatant and centrifuged at 35000× g for 1 hour at 4° C. The resulting membrane pellet is resuspended in homogenization buffer containing protease inhibitors at approximately 1 to 3 mg/mL, quick frozen in liquid nitrogen and stored as aliquots in a −80° C. freezer until use.
(§4) Method 2: Frozen cell pellets are lysed on ice in hypotonic buffer containing 50 mM Tris HCl, pH 7.5, 1 mM MgCl2, Roche Complete™ EDTA-free Protease Inhibitors and 25 units/mL DNAse I (Invitrogen). The cell suspension is disrupted using a glass Potter-Elvehjem homogenizer fitted with a Teflon® pestle for 20 to 25 strokes. The homogenate is centrifuged at 4° C. at 1800× g for 15 minutes. The supernatant is collected and stored on ice while the pellets are resuspended in homogenization buffer (without DNAse I) and rehomogenized as described above. The homogenate is centrifuged at 1800× g for 15 minutes. The second supernatant is combined with the first supernatant and centrifuged an additional time at 1800× g for 15 minutes. The overall supernatant is then centrifuged at 25000× g for 30 minutes at 4° C. The resulting membrane pellet is resuspended in homogenization buffer (without DNAse I) containing protease inhibitors at approximately 1 to 3 mg/mL and stored as aliquots in a −80° C. freezer until use.
The human Geg receptor binding assays are performed using a Scintillation Proximity Assay (SPA) format with wheat germ agglutinin (WGA) beads (Perkin Elmer). The binding buffer contains 25 mM 4-(2-hydroxyethyl)-1-piperazineethanesulfonic acid (HEPES), pH 7.4, 2.5 mM CaCl2), 1 mM MgCl2, 0.1% (w/v) bacitracin (Research Products), 0.003% (w/v) Polyoxyethylenesorbitan monolaurate (TWEEN®-20), and Roche Complete™ Protease Inhibitors without EDTA. Peptides and Gcg are thawed and 3-fold serially diluted in 100% DMSO (10 point concentration response curves). Next, 5 μL serially diluted compound or DMSO is transferred into Corning® 3632 clear bottom assay plates containing 45 μL assay binding buffer or unlabeled Gcg control (non-specific binding or NSB, at 1 μM final). […] Plates are sealed and mixed on a plate shaker (setting 6) for 1 minute and read with a PerkinElmer Trilux MicroBeta® scintillation counter after 12 hours of incubation/settling time at room temperature.
(§5) Data are analyzed using four-parameter (curve maximum, curve minimum, IC50, Hill slope) nonlinear regression routines (Genedata Screener, version 12.0.4, Genedata AG, Basal, Switzerland). […] Values for Ki are reported as the geometric mean, with error expressed as the standard error of the mean (SEM) and n is equal to the number of independent replicates (determined in assays performed on different days). […] SEM is only calculated when […] or greater. Means are expressed as geometric means with the standard error of the mean (SEM) and the number of replicates (n) indicated in parentheses.

human GLP-1R = target: T2, human GLP-1R (Homo sapiens, UniProt P43220); assay: [125I]-GLP-1 binding, SPA with WGA beads, 0.1% bacitracin; conditions: geometric mean, read-out: hGLP1R Ki
T2 construct: expressed in transfected cells; crude membranes
T2 sequence (P43220 24-463): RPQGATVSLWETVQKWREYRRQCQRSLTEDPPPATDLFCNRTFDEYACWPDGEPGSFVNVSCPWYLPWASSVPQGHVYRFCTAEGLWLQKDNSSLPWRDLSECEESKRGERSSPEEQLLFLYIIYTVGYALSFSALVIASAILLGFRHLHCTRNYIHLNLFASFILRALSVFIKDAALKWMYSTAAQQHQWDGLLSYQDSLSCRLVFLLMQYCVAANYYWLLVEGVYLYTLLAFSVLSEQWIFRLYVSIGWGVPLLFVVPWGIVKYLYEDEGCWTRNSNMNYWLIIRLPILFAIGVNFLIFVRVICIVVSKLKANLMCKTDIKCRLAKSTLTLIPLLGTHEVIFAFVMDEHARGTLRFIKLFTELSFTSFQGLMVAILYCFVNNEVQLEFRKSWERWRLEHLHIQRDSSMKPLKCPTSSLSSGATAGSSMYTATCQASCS
Method: as §1, §2, §3, §4
The binding buffer contains 25 mM HEPES, pH 7.4, 2.5 mM CaCl2), 1 mM MgCl2, 0.1% (w/v) bacitracin, 0.003% (w/v) TWEEN®-20, and Roche Complete™ Protease Inhibitors without EDTA.
as §5

| SMILES | Ki (human GcgR) | Ki (human GLP-1R) |
| --- | --- | --- |
| CC[C@H](C)[C@H](NC(=O)[C@H](CO)NC(=O)[C@H](Cc1ccc(O)cc1)NC(=O)[C@H](CC(=O)O)NC(=O)[C@H](CO)NC(=O)[C@@H](NC(=O)[C@H](Cc1ccccc1)NC(=O)[C@@H](NC(=O)CNC(=O)[C@H](CCC(=O)O)NC(=O)[C@@H](C)NC(=O)[C@@H](N)Cc1ccc(O)cc1)[C@@H](C)O)[C@@H](C)CC)C(=O)N[C@@H](CC(C)C)C(=O)N[C@@H](CC(C)C)C(=O)N[C@@H](CC(=O)O)C(=O)N[C@@H](CCCCN)C(=O)N[C@@H](CCCCNC(=O)COCCOCCNC(=O)COCCOCCNC(=O)CC[C@H](NC(=O)CCCCCCCCCCCCCCCCCCC(=O)O)C(=O)O)C(=O)N[C@@H](Cc1c[nH]cn1)C(=O)N[C@@H](CCC(N)=O)C(=O)N[C@@H](CCC(N)=O)C(=O)N[C@@H](CCC(=O)O)C(=O)N[C@@H](Cc1ccccc1)C(=O)N[C@H](C(=O)N[C@@H](CC(N)=O)C(=O)N[C@@H](Cc1c[nH]c2ccccc12)C(=O)N[C@@H](CC(C)C)C(=O)N[C@@H](CC(C)C)C(=O)N[C@@H](C)C(=O)N[C@@H](CCC(N)=O)C(=O)NCC(=O)N1CCC[C@H]1C(=O)N[C@@H](CO)C(=O)N[C@@H](CO)C(=O)NCC(=O)N[C@@H](C)C(=O)N1CCC[C@H]1C(=O)N1CCC[C@H]1C(=O)N1CCC[C@H]1C(=O)N[C@@H](CO)C(N)=O)C(C)C [Example 13] (H-Y[dA]EGTFISDYSILLDKK([AEEA-AEEA-γGlu-C20 diacid])HQQEFVNWLLAQGPSSGAPPPS-NH2) | > 0.23 µM | > 0.213 µM |
| CC[C@H](C)[C@H](NC(=O)[C@H](CO)NC(=O)[C@H](Cc1ccc(O)cc1)NC(=O)[C@H](CC(=O)O)NC(=O)[C@H](CO)NC(=O)[C@@H](NC(=O)[C@H](Cc1ccccc1)NC(=O)[C@@H](NC(=O)CNC(=O)[C@H](CCC(=O)O)NC(=O)[C@@H](C)NC(=O)[C@@H](N)Cc1ccc(O)cc1)[C@@H](C)O)[C@@H](C)CC)C(=O)N[C@@H](CC(C)C)C(=O)N[C@@H](CC(C)C)C(=O)N[C@@H](CC(=O)O)C(=O)N[C@@H](CCCCN)C(=O)N[C@@H](CCCCNC(=O)COCCOCCNC(=O)COCCOCCNC(=O)CC[C@H](NC(=O)CCCCCCCCCCCCCCCCCCC(=O)O)C(=O)O)C(=O)N[C@@H](Cc1c[nH]cn1)C(=O)N[C@@H](CCC(N)=O)C(=O)N[C@@H](CCC(N)=O)C(=O)N[C@@H](CC(=O)O)C(=O)N[C@@H](Cc1ccccc1)C(=O)N[C@H](C(=O)N[C@@H](CCC(=O)O)C(=O)N[C@@H](Cc1c[nH]c2ccccc12)C(=O)N[C@@H](CC(C)C)C(=O)N[C@@H](CC(C)C)C(=O)N[C@@H](C)C(=O)N[C@@H](CCC(N)=O)C(=O)NCC(=O)N1CCC[C@H]1C(=O)N[C@@H](CO)C(=O)N[C@@H](CO)C(=O)NCC(=O)N[C@@H](C)C(=O)N1CCC[C@H]1C(=O)N1CCC[C@H]1C(=O)N1CCC[C@H]1C(=O)N[C@@H](CO)C(N)=O)C(C)C [Example 14] (H-Y[dA]EGTFISDYSILLDKK([AEEA-AEEA-γGlu-C20 diacid])HQQDFVEWLLAQGPSSGAPPPS-NH2) | > 0.23 µM | > 0.213 µM |
